Source: patent US12486269B2 (Aconcagua Bio, Inc., priority 2024, dated 2025)

Columns and labels:
[1] = target: T1, COS-7/AMY3 (human calcitonin receptor (CTR) and RAMP3) (Homo sapiens, UniProt O60896+P30988); assay: Amylin Receptor cAMP Assay II; format: cell-based; conditions: values marked **: Amylin Receptor cAMP Assay II; COS-7/AMY3 cells, cAMP dynamic 2 kit, 30 min; read-out: Amylin Receptor cAMP Stimulation Activity: EC50
T1 construct: expressed in transfected cells; host or cells: COS-7
Source text: AMYRs are heterodimers of the class B calcitonin (CT) G-protein-coupled receptor (CTR) and receptor activity-modifying proteins (RAMPs). All three RAMPs can interact with the CTR and form AMY1, AMY2, AMY3 with RAMP1, RAMP2 and RAMP3, respectively. Like other class B1 GPCRs, the CT receptor family is canonically coupled to Gs-mediated cAMP production, and measurement of cAMP accumulation has been the primary assay used to determine peptide selectivity and potency.
(§1) To optimize functional activity directed toward Gαs coupling, COS-7 cells were stably transfected with human calcitonin receptor (CTR) and RAMP3, simultaneously. 100×concentration of compound working solutions were prepared with 4-fold serial dilution in 384-well Echo LDV plate (Labcyte, Cat #LP-0200-BC). 200 nL/well 100×concentration of compound working solutions were moved to 384-well white microplate (Perkin Elmer, Cat #6007680) using Labcyte ECHO550. 1×10^5 cells/mL COS-7/AMY3 cell suspensions prepared with assay buffer [HBSS containing 20 mM HEPES (Gibco, Cat #15630-080), 0.5 mM IBMX (Sigma, Cat #15879) and 0.1% Casein (Sigma, Cat #C4765)], 20 μL cell suspensions were added to each well of previous generated assay plate which already contains 200 nL compound at 100×concentration using ThermoFisher Multidrop Combi (2000 cells/well). Seal the plate and incubate at 37° C. with 5% CO2 for 30 min.
(§2) After incubation, the cAMP assay signal was generated using cAMP dynamic 2 kit (Revvity, Cat #62AM4PEC). 10 μL cAMP-d2 working solution was added to each well, followed by 10 μL Anti-cAMP antibody-cryptate working solution which was added to each well using CERTUS FLEX LIQUID […]. The samples were then incubated at room temperature for 1 hour protected from light. the fluorescence was read at 665 and 615 nm with Reader PerkinElmer EnVision 2105. % Activity=100−(mean RLU of test sample−mean RLU of positive control)/(mean RLU of vehicle control−mean RLU of positive control)×100 Calcitonin Receptor (CTR) cAMP Assay

[2] = target: T2, human calcitonin receptor (CTR) (Homo sapiens, UniProt P30988); assay: Calcitonin Receptor (CTR) cAMP Assay; format: cell-based; conditions: COS7-human CTR Clone #2 stable cell line, cAMP dynamic 2 kit, 30 min; read-out: Calcitonin Receptor cAMP Stimulation Activity: EC50
T2 construct: expressed in transfected cells; host or cells: COS-7 (COS7-human CTR Clone #2)
T2 sequence (P30988 25-474): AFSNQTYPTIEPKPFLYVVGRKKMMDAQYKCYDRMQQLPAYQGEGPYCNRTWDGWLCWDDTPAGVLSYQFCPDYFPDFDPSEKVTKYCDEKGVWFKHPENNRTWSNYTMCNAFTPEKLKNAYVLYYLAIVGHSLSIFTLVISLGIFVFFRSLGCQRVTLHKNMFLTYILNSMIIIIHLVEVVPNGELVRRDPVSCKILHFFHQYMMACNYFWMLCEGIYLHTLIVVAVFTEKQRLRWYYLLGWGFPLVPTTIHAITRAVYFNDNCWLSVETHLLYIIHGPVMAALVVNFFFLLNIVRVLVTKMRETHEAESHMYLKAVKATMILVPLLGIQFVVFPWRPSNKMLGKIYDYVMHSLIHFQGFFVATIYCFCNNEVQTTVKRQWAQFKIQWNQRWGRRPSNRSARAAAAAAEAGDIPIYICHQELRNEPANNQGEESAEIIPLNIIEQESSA
Protocol: as §2
The calcitonin receptor (CTR) belongs to the subfamily of GPCRs known as the secretin or ‘B’ family of GPCRs. Like other class B1 GPCRs, the CT receptor family is canonically coupled to Gs-mediated cAMP production, and measurement of cAMP accumulation has been the primary assay used to determine peptide selectivity and potency.
as §1, with “to create COS7-human CTR Clone #2 stable cell line.” for “and RAMP3, simultaneously.”, “COS7-human CTR Clone #2” for “COS-7/AMY3”
as §2, with “control)×100” for “control)×100 Calcitonin Receptor (CTR) cAMP Assay”

T1 sequence (O60896 24-148, one chain of several): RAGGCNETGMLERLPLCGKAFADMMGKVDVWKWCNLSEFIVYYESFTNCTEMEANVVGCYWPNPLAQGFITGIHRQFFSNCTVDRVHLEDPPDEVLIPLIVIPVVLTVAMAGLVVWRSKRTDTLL

| EC50 [1] | EC50 [2] | SMILES |
| --- | --- | --- |
| 101 nM | 12.9 nM | O=C(NCc1ccc(F)c(F)c1)c1ccc(-c2c3c(nc(CCc4ccc(F)cc4)c2-c2noc(=O)[nH]2)[C@@H]2CCCN2C3=O)s1 [Compound 101] |
| 12.2 nM | 0.8 nM | COc1cccc2c1CC[C@H]2Nc1nccc2cc(-c3c4c(nc(CCc5ccc(F)cc5)c3-c3n[nH]c(=O)o3)[C@@H]3CCCN3C4=O)sc12 [Compound 102, 5-((S)-2-(4-fluorophenethyl)-4-(7-(((R)-4-methoxy-2,3-dihydro-1H-inden-1-yl)amino)thieno[2,3-c]pyridin-2-yl)-5-oxo-7,8,9,9a-tetrahydro-5H-pyrido[2,3-a]pyrrolizin-3-yl)-1,3,4-oxadiazol-2(3H)-one] |
| 273 nM | 21.5 nM | O=C(NCc1ccc(F)c(F)c1)c1ccc(-c2c3c(nc(CCc4ccc(F)cc4)c2-c2cc(=O)[nH]o2)[C@@H]2CCCN2C3=O)s1 [Compound 103, (S)—N-(3,4-difluorobenzyl)-5-(2-(4-fluorophenethyl)-5-oxo-3-(3-oxo-2,3-dihydroisoxazol-5-yl)-7,8,9,9a-tetrahydro-5H-pyrido[2,3-a]pyrrolizin-4-yl)thiophene-2-carboxamide] |
| 25.5 nM | 0.926 nM | COc1cccc2c1CC[C@H]2Nc1nccc2cc(-c3c4c(nc(CCc5ccc(F)cc5)c3-c3noc(=O)[nH]3)[C@@H]3CCCN3C4=O)sc12 [Compound 104] |
| 34.4 nM | 9.03 nM | CN(Cc1ccc(F)c(F)c1)c1nccc2cc(-c3c4c(nc(CCc5ccc(F)cc5)c3-c3noc(=O)[nH]3)[C@@H]3CCCN3C4=O)sc12 [Compound 107, (S)-3-(4-(7-((3,4-difluorobenzyl)(methyl)amino)thieno[2,3-c]pyridin-2-yl)-2-(4-fluorophenethyl)-5-oxo-7,8,9,9a-tetrahydro-5H-pyrido[2,3-a]pyrrolizin-3-yl)-1,2,4-oxadiazol-5(4H)-one] |
| 401 nM | 205 nM | O=C1c2c(nc(CCc3ccc(F)cc3)c(-c3noc(=O)[nH]3)c2-c2ccc3c(NCc4ccc(F)c(F)c4)nccc3c2)[C@@H]2CCCN12 [Compound 111] |
| 1120 nM | 271 nM | O=C1c2c(nc(CCc3ccc(F)cc3)c(-c3noc(=O)[nH]3)c2-c2ccc3c(c2)CC[C@H]3OCc2ccc(F)c(F)c2)[C@@H]2CCCN12 [Compound 113] |
| 425 nM | 396 nM | O=C1c2c(nc(CCc3ccc(F)cc3)c(-c3noc(=O)[nH]3)c2-c2ccc3c(c2)CCCN3CCc2ccc(F)c(F)c2)[C@@H]2CCCN12 [Compound 114] |
| 566 nM | 28.8 nM | CN(Cc1ccc(F)c(F)c1)C(=O)c1ccc(-c2c3c(nc(CCc4ccc(F)cc4)c2-c2noc(=O)[nH]2)[C@@H]2CCCN2C3=O)s1 [Compound 115] |
| 253 nM | 25.6 nM | O=C(c1ccc(-c2c3c(nc(CCc4ccc(F)cc4)c2-c2noc(=O)[nH]2)[C@@H]2CCCN2C3=O)s1)N1CCCC1c1ccc(F)c(F)c1 (stereo partly shown) [Compound 116] |
| 113 nM | 53.5 nM | O=C1c2c(nc(CCc3ccc(F)cc3)c(-c3noc(=O)[nH]3)c2-c2cc3ccnc(N4CCCC4c4ccc(F)c(F)c4)c3s2)[C@@H]2CCCN12 (stereo partly shown) [Compound 117] |
| 23.6 nM | 1.24 nM | O=C(N[C@@H]1CCc2cc(F)c(F)cc21)c1ccc(-c2c3c(nc(CCc4ccc(F)cc4)c2-c2noc(=O)[nH]2)[C@@H]2CCCN2C3=O)s1 [Compound 120] |
| 42.9 nM | 1.19 nM | COc1cccc2c1CC[C@H]2Nc1nccc2cc(-c3c4c(nc(CCc5ccc(C(F)(F)F)cc5)c3-c3noc(=O)[nH]3)[C@@H]3CCCN3C4=O)sc12 [Compound 123] |
| 18.2 nM | 0.628 nM | COc1cccc2c1CC[C@H]2Nc1nccc2cc(-c3c4c(nc(CCc5cccc(C(F)(F)F)c5)c3-c3noc(=O)[nH]3)[C@@H]3CCCN3C4=O)sc12 [Compound 124, 3-((S)-4-(7-(((R)-4-methoxy-2,3-dihydro-1H-inden-1-yl)amino)thieno[2,3-c]pyridin-2-yl)-5-oxo-2-(3-(trifluoromethyl)phenethyl)-7,8,9,9a-tetrahydro-5H-pyrido[2,3-a]pyrrolizin-3-yl)-1,2,4-oxadiazol-5(4H)-one] |
| 50.5 nM | 0.711 nM | COc1cccc2c1CC[C@H]2Nc1nccc2cc(-c3c4c(nc(CCc5ccccc5C(F)(F)F)c3-c3noc(=O)[nH]3)[C@@H]3CCCN3C4=O)sc12 [Compound 125, 3-((S)-4-(7-(((R)-4-methoxy-2,3-dihydro-1H-inden-1-yl)amino)thieno[2,3-c]pyridin-2-yl)-5-oxo-2-(2-(trifluoromethyl)phenethyl)-7,8,9,9a-tetrahydro-5H-pyrido[2,3-a]pyrrolizin-3-yl)-1,2,4-oxadiazol-5(4H)-one] |
| 143 nM | 4.36 nM | COc1cccc2c1CC[C@H]2Nc1nccc2cc(-c3c4c(nc(CCc5ccc(C6CC6)cc5)c3-c3noc(=O)[nH]3)[C@@H]3CCCN3C4=O)sc12 [Compound 127, 3-((S)-2-(4-cyclopropylphenethyl)-4-(7-(((R)-4-methoxy-2,3-dihydro-1H-inden-1-yl)amino)thieno[2,3-c]pyridin-2-yl)-5-oxo-7,8,9,9a-tetrahydro-5H-pyrido[2,3-a]pyrrolizin-3-yl)-1,2,4-oxadiazol-5(4H)-one] |
| 21.9 nM | 1.13 nM | COc1cccc2c1CC[C@H]2Nc1nccc2cc(-c3c4c(nc(CC5CCc6cc(F)ccc65)c3-c3noc(=O)[nH]3)[C@@H]3CCCN3C4=O)sc12 (stereo partly shown) [Compound 128] |
| 38.3 nM | 3.06 nM | O=C1c2c(nc(CCc3ccc(F)cc3)c(-c3noc(=O)[nH]3)c2-c2cc3ccnc(NCc4ccc(F)c(F)c4)c3s2)[C@@H]2CCCN12 [Compound 130] |
| 90.7 nM | 4.42 nM | O=C1c2c(nc(CCc3ccc(F)cc3)c(-c3noc(=O)[nH]3)c2-c2cc3ccnc(OCc4ccc(F)c(F)c4)c3s2)[C@@H]2CCCN12 [Compound 133, (S)-3-(4-(7-((3,4-difluorobenzyl)oxy)thieno[2,3-c]pyridin-2-yl)-2-(4-fluorophenethyl)-5-oxo-7,8,9,9a-tetrahydro-5H-pyrido[2,3-a]pyrrolizin-3-yl)-1,2,4-oxadiazol-5(4H)-one] |
| 41.5 nM | 2.7 nM | O=C1c2c(nc(CCc3ccc(F)cc3)c(-c3noc(=O)[nH]3)c2-c2cc3ccnc(N[C@@H]4CCCc5ccccc54)c3s2)[C@@H]2CCCN12 [Compound 139] |
